Laboratory results reported in patent publication US10647700B2, “EZH2 inhibitor and use thereof” (TARAPEUTICS SCIENCE INC., priority 2017, dated 2020).

Tests used:
EZH2 = EZH2 (Homo sapiens (Human), UniProt Q15910); experiment: E-cadherin promoter luciferase reporter gene primary screening in 293T cells; format: cell-based; settings: 293T cells treated for 24 hours, Dual-Glo luciferase
Source text: EZH2 suppresses the expression of downstream E-cadherin, and upon EZH2 suppression, expression of E-cadherin will increase. Based on such principle, a reporter gene expression vector was constructed using luciferase.
The amplified fragments after PCR and the PGL4.1 vector (purchased from TAKARA, Japan) were respectively subjected to enzyme digestion with SacI and BglII (purchased from TAKARA, Japan), and then purified with PCR cleanup kit (Axygen PCR cleanup kit). Subsequently, the purified and enzyme-digested PCR products was ligated to the purified and enzyme-digested PGL4.1 vector using ligase solution I (DNA Ligation Kit Ver.2.1, purchased from TAKARA, Japan), and subjected to transformation. Single clones were then screened out and subjected to sequencing, and the obtained positive plasmid containing promoter fragments of Ecadherin was named E-cadherin RE-PGL4.1.
Meanwhile, a Renilla fluorescent vector was constructed using PCDNA4.1 (purchased from Thermofisher, USA) as the template to amplify the fragment of CMV promoter. After enzymatic digestion of the amplified CMV sequences and pGL4.70 vector (purchased from Promega, USA) with KpnI and XhoI (purchased from Promega, USA), purification was conducted with PCR cleanup kit (Axygen PCR cleanup kit). Then the enzyme-digested PCR product was ligated to the enzyme-digested PGL4.70 vector using ligase solution I (DNA Ligation Kit Ver.2.1, purchased from TAKARA, Japan) and the resultant was subjected to transformation. Subsequently single clones were screened and subjected to sequencing, and the obtained plasmid that contained CMV sequence was named as Plasmid Renilla luciferase-pGL4.70. Said plasmid utilized CMV promoter to achieve high expression of Renilla luciferase, which served as the control fluorescence for the primary screening system.
The cells were firstly added with 20 μL Dual-Glo® Luciferase Assay Reagent, then incubated under room temperature for 10 minutes, and read on microplate reader Spectramax i3 (Molecular Devices, USA) to obtain the data of primary screening, which is shown in Table 1.

[1] = tested on: H3K27m3 methylation in Pfeiffer cells; experiment: Western Blot of H3K27m3 methylation in Pfeiffer cells; format: cell-based; settings: Homo sapiens, 72 hours treatment, H3K27m3 methylation by Western Blot
Description: Meanwhile, the inventors further conducted Western Blot with Pfeiffer cells (purchased from ATCC, USA) for verification. […] Effect of compounds on H3K27m3 methylation in cells was assessed.

[2] = biological target: PRC2 protein complex comprising EZH2(Y641F) (Homo sapiens (Human), UniProt Q15910, Y641F); experiment: EZH2(Y641F) TR-FRET enzymatic activity assay
Chain of PRC2 protein complex comprising EZH2(Y641F) (Q15910 whole entry Y641F): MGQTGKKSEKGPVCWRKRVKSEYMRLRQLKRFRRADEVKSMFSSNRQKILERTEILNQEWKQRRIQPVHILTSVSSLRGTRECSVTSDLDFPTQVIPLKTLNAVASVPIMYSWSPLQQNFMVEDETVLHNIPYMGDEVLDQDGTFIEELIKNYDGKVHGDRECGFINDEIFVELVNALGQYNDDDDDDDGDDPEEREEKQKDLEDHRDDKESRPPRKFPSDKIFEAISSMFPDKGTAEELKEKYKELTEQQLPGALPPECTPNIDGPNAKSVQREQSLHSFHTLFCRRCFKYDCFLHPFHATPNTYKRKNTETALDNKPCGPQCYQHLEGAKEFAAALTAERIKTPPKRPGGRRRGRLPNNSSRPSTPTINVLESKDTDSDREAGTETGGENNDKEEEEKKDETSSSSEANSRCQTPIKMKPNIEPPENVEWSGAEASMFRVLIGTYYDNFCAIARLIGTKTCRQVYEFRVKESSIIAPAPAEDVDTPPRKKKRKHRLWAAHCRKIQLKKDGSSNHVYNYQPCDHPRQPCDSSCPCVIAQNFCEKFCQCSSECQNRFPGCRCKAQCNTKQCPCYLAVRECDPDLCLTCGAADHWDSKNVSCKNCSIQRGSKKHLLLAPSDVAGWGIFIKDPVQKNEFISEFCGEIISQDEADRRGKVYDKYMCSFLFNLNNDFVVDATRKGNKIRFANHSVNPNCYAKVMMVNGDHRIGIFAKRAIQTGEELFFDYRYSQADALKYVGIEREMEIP
Chain of PRC2 protein complex comprising EZH2(Y641F) (O75530 whole entry partner): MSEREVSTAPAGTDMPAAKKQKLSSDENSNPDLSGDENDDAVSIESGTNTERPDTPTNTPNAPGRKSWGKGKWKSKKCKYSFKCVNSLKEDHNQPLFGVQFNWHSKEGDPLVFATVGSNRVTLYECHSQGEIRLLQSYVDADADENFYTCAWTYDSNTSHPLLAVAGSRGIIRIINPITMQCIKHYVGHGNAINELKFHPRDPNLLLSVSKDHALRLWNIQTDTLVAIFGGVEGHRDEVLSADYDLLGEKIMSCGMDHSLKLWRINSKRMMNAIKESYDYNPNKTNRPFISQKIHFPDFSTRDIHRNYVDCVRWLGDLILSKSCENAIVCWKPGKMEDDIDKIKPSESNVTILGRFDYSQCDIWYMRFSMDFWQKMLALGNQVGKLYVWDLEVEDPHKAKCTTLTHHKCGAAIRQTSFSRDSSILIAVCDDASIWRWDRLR
Chain of PRC2 protein complex comprising EZH2(Y641F) (Q15022 whole entry partner): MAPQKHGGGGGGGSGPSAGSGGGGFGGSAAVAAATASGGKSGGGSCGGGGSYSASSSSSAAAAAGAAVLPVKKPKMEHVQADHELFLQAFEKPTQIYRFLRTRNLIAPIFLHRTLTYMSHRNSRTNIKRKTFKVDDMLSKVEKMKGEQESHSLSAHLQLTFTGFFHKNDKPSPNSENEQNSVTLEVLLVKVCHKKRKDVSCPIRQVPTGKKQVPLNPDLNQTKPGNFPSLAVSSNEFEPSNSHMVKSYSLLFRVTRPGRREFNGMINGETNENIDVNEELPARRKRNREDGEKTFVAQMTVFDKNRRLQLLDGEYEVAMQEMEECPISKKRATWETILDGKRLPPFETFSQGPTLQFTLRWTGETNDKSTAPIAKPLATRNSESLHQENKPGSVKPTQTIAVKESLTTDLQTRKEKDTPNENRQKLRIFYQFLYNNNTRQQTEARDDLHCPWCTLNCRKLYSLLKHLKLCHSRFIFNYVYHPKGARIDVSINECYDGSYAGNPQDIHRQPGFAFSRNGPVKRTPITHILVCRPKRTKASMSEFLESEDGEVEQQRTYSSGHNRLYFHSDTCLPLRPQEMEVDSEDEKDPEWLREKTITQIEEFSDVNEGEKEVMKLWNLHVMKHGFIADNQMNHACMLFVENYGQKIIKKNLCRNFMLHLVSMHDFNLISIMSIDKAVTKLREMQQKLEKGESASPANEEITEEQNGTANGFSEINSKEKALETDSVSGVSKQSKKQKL
Chain of PRC2 protein complex comprising EZH2(Y641F) (Q09028 whole entry partner): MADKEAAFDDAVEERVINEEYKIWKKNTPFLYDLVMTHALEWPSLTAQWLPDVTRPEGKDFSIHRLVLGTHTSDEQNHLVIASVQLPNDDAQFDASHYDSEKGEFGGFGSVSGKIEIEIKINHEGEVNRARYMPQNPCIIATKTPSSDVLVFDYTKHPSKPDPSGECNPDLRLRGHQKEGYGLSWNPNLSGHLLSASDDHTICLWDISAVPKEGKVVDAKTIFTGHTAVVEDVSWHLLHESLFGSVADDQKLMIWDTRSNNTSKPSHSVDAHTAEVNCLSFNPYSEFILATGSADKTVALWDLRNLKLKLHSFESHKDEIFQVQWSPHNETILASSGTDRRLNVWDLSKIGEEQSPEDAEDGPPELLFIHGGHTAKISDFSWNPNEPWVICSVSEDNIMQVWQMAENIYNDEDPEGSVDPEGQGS
Chain of PRC2 protein complex comprising EZH2(Y641F) (Q6ZN18 whole entry partner): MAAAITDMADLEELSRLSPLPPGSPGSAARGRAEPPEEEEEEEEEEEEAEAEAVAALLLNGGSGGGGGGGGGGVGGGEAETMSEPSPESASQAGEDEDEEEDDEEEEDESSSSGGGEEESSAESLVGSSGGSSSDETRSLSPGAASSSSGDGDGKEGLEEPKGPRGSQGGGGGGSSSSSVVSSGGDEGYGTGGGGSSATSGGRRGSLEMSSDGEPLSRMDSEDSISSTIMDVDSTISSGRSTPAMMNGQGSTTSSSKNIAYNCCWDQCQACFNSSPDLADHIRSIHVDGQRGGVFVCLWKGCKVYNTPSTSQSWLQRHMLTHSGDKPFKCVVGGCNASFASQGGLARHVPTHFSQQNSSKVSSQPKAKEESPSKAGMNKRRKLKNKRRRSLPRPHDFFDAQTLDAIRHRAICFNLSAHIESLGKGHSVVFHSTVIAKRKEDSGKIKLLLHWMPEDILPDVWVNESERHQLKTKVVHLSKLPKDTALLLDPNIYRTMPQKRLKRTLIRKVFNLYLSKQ
Description: Subsequently 5 μL of the assay antibody, H3K27me3-Eu(K)Ab (purchased from cisbio bioassays, USA, #61 KC3KAE) and 5 μL Streptavidin-XL665 (purchased from cisbio bioassays, USA, #610SAXLA), were added and incubated for 1 hour at room temperature.

Chain of EZH2 (Q15910 whole entry): as the sequence (Q15910 whole entry Y641F) above, with F641Y counted along it
Chain of EZH2 (O75530 whole entry partner): as the sequence (O75530 whole entry partner) above
Chain of EZH2 (Q15022 whole entry partner): as the sequence (Q15022 whole entry partner) above
Chain of EZH2 (Q09028 whole entry partner): as the sequence (Q09028 whole entry partner) above

Compound: CCN(C(=O)C1CCCC1)c1cc(-c2ccc(CN3CCNCC3)cc2)cc(C(=O)NCc2c(C)cc(C)[nH]c2=O)c1C [Compound 25, N-((4,6-dimethyl-2-oxo-1,2-dihydropyridin-3-yl)methyl)-5-(N-ethylcyclopentanecarboxamido)-4-methyl-4′-((4-piperazin-1-yl)methyl)-4-methyl-[1,1′-diphenyl]-3-carboxamide]
- 1 μM relative fluorescence intensity (EZH2; compound 1 μM): 116.28
- 10 μM relative fluorescence intensity (EZH2; compound 10 μM): 228.14
- IC50 [1]: 0.063 µM
- IC50 [2]: 58.6 nM
- activity compared with control compounds in the assay using a TR-FRET kit ([2]; versus GSK126 and EPZ6438): superior activity than control compounds GSK126 and EPZ6438
